Source: article PMC10777851, “SMT-738: a novel small-molecule inhibitor of bacterial lipoprotein transport targeting Enterobacteriaceae” (Antimicrobial Agents and Chemotherapy, 2023)
pIC50: −log10 of the molar value. Converted amounts (≈) assume the structure as drawn. “And” between values parts separate entries of the source, which are not always exact repeats. Equal values may be shown once.

Key:
[1] = system: human lymphoblastoid TK6 cells; assay: GreenScreen genotoxicity assay; assay type: cell-based; settings: top concentration of 500 µM (= 196.85 µg/mL)
Protocol: The standard GreenScreen genotoxcity assay was performed by Cyprotex, UK. The assay uses two strains of human lymphoblastoid TK6 cells, the test strain (GenM-[…]), and the non-fluorescent control strain (GenM-C01). Incorporated in the test strain is a patented green fluorescent protein (GFP) reporter system that exploits the proper regulation of the GADD45a gene, which mediates the adaptive response to genotoxic stress.

[2] = system: anaerobic gut commensals such as Actinomyces sp., Bacteroides sp., Clostridioides sp., Bifidobacterium sp., Peptostreptococcus sp., and Veillonella sp.; assay: MIC, panel of 100 bacterial species: anaerobic gut commensals; assay type: cell-based
Protocol: (§1) MIC tests were performed by broth microdilution in-line with CLSI susceptibility testing standards ([20], [21]) either in-house or at IHMA (Europe and USA) or JMI Laboratories using cation-adjusted Mueller Hinton Broth.

[3] = system: KPM (K. pneumoniae NCTC 13438) LolC and LolE mutants; assay: MIC fold change of resistant LolC/LolE mutants, KPM; assay type: cell-based, Klebsiella pneumoniae
Protocol: as §1
(§2) The FoR of bacterial strains to test compounds was determined by plating aliquots of overnight cultures onto MH-agar plates containing dilutions of the test compound at various multiples of reference MIC as previously determined. Total viable counts of the overnight cultures were determined by spotting 10–20 µL of decimal dilutions in 1× phosphate-buffered saline (PBS) onto non-selective agar. Assay plates were incubated for up to 48 h with colonies being enumerated every 24 h. FoR was determined by dividing the number of colonies observed by the total number of viable cells plated. Representative colonies were then picked and streaked onto selective agar to confirm resistance and obtain resistant isolates. Isolates growing on selective agar were then used to initiate overnight cultures, bacteria pelleted by centrifugation, supernatant removed, and pellets stored at −80°C for subsequent DNA extraction and whole-genome sequencing. Genomic DNA was extracted using the DNeasy Blood and Tissue Kit (Qiagen), quantified using the Quant-iT TM PicoGreen TM dsDNA Assay Kit (Thermo Fisher Scientific), and normalized to 0.2 ng/µL in nuclease-free water. Library preparation and barcode addition were with the Nextera XT DNA Library Prep Kit (Illumina). KAPA Pure beads (Roche) were used for DNA purification. Samples were pooled to achieve 100× coverage of each sample and run on an Illumina Nextseq 500/550 Mid Output Kit v2.5 (150 cycles) (Illumina).

[4] = system: two respiratory isolates (carrying NDM-5 and TEM-OSBL) from Russia in 2019; assay: MIC against two cefiderocol-resistant respiratory isolates; assay type: cell-based
Protocol: as §1

K. pneumoniae = assay: MIC by broth microdilution (CLSI) against K. pneumoniae; assay type: cell-based, Klebsiella pneumoniae
Protocol: as §1

[5] = system: UPEC (E. coli NCTC 13441); assay: Frequency of resistance determination, E. coli; assay type: cell-based, Escherichia coli; settings: for FoR Range: experiments with colonies observed
Protocol: as §2

HepG2 = assay: Cytotoxicity (CellTiter-Glo), HepG2; assay type: cell-based; settings: HepG2, 24 h
Protocol: HepG2 (ATCC, HB-8065) and HEK293 (ATCC, CRL-1573) were sourced from ATCC. For the cytotoxicity assay, cells were seeded onto 96-well plates, which were then incubated for 24 h in a 5% CO2 incubator at 37°C. On the day of the assay, 10-point, twofold serial dilutions of test compound were prepared in assay media (MEM + 10% FBS) in separate 96-well plates. Assay plates were removed from the incubator, and the media from all of the wells were removed, taking care not to disturb the cell layer. Compound-containing assay media or control media were added to the relevant wells. Assay plates were returned to the 5% CO2 incubator at 37°C for 24 h. CellTiter-Glo reagent (Promega, G7570) was used to determine the viability of the cells.

HepG2 cells = assay: Seahorse mitochondrial functional assay; assay type: cell-based; settings: top concentration of 500 µM (= 196.85 µg/mL)
Protocol: The Seahorse mitochondrial functional assay was performed by Cyprotex, UK. HepG2 cells were dosed with test compound, and in real time, the extracellular oxygen levels and pH were measured using the Xfe96 flux analyzer (Seahorse Biosciences). Simultaneously, oxygen consumption rate and extracellular acidification rate were measured to determine its effect on oxidative phosphorylation.

[6] = system: E. coli BAA 2469 (NDM-1 positive); assay: Murine bloodstream infection model; assay type: in vivo, male CD-1 mice; settings: 60-min IV infusion, readout 9 h, below the limit of detection
Protocol: Male JVC-cannulated CD-1 mice were infected intraperitoneally with E. coli BAA2469. At t = 1 h and t = 6 h, SMT-738 was intravenously infused over 60 min (BID). The mice from the pre-treatment group were euthanized at 1 h post-infection. All remaining mice were euthanized at 9 h post-infection, and blood samples were collected via cardiac puncture. Blood samples were serially diluted in PBS and plated onto cystine-lactose-electrolyte-deficient (CLED) agar. The viable bacterial burden for each sample was determined following overnight incubation at 37°C. A Kruskal-Wallis statistical test was performed.

E. coli NCTC 13441 = assay: Time-kill experiment, E. coli; assay type: cell-based, Escherichia coli; settings: 2× and 4× the MIC
Protocol: An overnight culture of the test strain was diluted to a viable cell density of ~10^6 CFU/mL and dispensed into 96-well plates containing dilutions of SMT-738 to yield the specified multiple of the MIC. Plates were sealed with a breathable seal and incubated under shaking conditions in a humid incubator at 37°C. At specific timepoints (t = 0, 1, 2, 4, 6, 8, and 24 h), samples were taken and plated onto MH agar plates, and colonies enumerated after overnight growth at 37°C. Viable cell numbers as log10 (CFU/mL) were then plotted against time. Where no colonies were detected, the limit of detection was 100 CFU/mL. Compound activity was scored as bactericidal if the viable cell count decreased by at least 3 log10 from the initial count.

[7] = 100 MDR clinical isolates incl. ESBL and CRE

Cc1cnccc1-c1[nH]c(N)nc1-c1ccc2c(c1)N(C(=O)C(C)(C)N)CCO2 [SMT-738]
genotoxicity [1]: No toxicity was observed
MIC [2]: > 128 µg/mL
MIC fold change increase ([3]; LolC E198K mutant): E198K (64×)
MIC fold change increase ([3]; LolE L60P mutant): L60P (16×)
MIC fold change increase ([3]; LolE M261R mutant): M261R (>64×)
MIC ([4]; first of the two respiratory isolates): 0.25 µg/mL (≈ 0.637 µM)
MIC ([4]; second of the two respiratory isolates): 0.5 µg/mL (≈ 1.27 µM)
MIC Range K. pneumoniae (NDM) (K. pneumoniae; 15 clinical MDR NDM isolates (NDM-1, NDM-4, NDM-5) from India (2018)): 0.5 to 1 µg/mL
MIC50 K. pneumoniae (K. pneumoniae; [7]): 1 µg/mL (≈ 2.55 µM)
MIC90 K. pneumoniae (K. pneumoniae; [7]): 2 µg/mL (≈ 5.1 µM)
MIC range K. pneumoniae (K. pneumoniae; [7]): 0.25 to 8 µg/mL
MIC (K. pneumoniae; K. pneumoniae ATCC 43816): 0.5 µg/mL (≈ 1.27 µM)
MIC (20% HS) (K. pneumoniae; K. pneumoniae IHMA 1769429, 20% human serum): 1 µg/mL (≈ 2.55 µM)
MIC (50% HS) (K. pneumoniae; K. pneumoniae IHMA 1769429, 50% human serum): 2 µg/mL (≈ 5.1 µM)
MIC (no HS) (K. pneumoniae; K. pneumoniae IHMA 1769429, no human serum): 2 µg/mL (≈ 5.1 µM)
MIC (20% HS) (K. pneumoniae; K. pneumoniae IHMA 1770556, 20% human serum): 0.5 µg/mL (≈ 1.27 µM)
MIC (50% HS) (K. pneumoniae; K. pneumoniae IHMA 1770556, 50% human serum): 1 µg/mL (≈ 2.55 µM)
MIC (no HS) (K. pneumoniae; K. pneumoniae IHMA 1770556, no human serum): 1 µg/mL (≈ 2.55 µM)
MIC (K. pneumoniae; K. pneumoniae NCTC 13438 (MDR, Class A KPC)): 1.56 µM and 0.61 µg/mL
MICref (K. pneumoniae; Kpm13438, reference MIC of the FoR experiments): 3.13 µM and 1.22 µg/mL
FoR Range ([5]; 4× MICref, 48 h): 1.52E-09
FoR Range ([5]; 8× MICref, 24 h): 7.20E-10
Frequency of resistance (FoR) ([5]; single-step selection at 4× and 8× the MIC, after 24 and 48 h): ≤ 10^−9
pIC50 (HepG2): < 3.70
cytotoxicity IC50 (HepG2): > 78.74 µg/mL
mitotoxicity (HepG2 cells): No toxicity was observed
efficacy in the blood ([6]; 10 mg/kg BID): almost as efficacious as the 20 mg/kg BID dose
reduction of bacterial burden compared to pre-treatment ([6]; blood, 20 mg/kg BID): 4 log10
re-growth over the 24-h timepoint (E. coli NCTC 13441): no observed re-growth
timepoint at which bactericidal activity was displayed (E. coli NCTC 13441): 2 h
reduction of viability (E. coli NCTC 13441; 2-h timepoint): > 3 log10 CFU/mL
